# Results from US6608103B2, “Inhibitor for neovasculation, cell multiplication, lumen formation and FGF” (Fuji Chemical Industry Co., Ltd., priority 2001, dated 2003).
# “Also recorded” adds a separate entry of the source.
# Assays:
# Format in all cases: cell-based, bovine
# BAEC [1] = assay: Neovasculation / lumen formation of BAEC between two layers of type I collagen gel
# Experimental: BAEC was cultured between two layers of type I collagen gel, and a lumen-like netting structure formed therebetween was evaluated.
# (§1) Eight parts by volume of “Vitrogen Collagen” (Collagen Co.), 1 part by volume of 0.1 N NaOH and 1 part by volume of ×10 MEM (GIBCO BRL) were placed in a tube, and mixed quickly in an ice bath. The culture solution was removed by suction, and 0.5 ml/well of the above mixture containing collagen was pipetted into each well. The microplate was placed in a CO2 incubator for about 30 minutes to gelatinize it. 1.5 ml of a medium (MEM | 2% FBS) containing a sample was added, and continued to incubate while changing the medium every second day.
# (§2) The variation of cells were observed by a microscope by taking a photograph, and lumen formation was evaluated by counting the number of branches of cells forming lumen.
# The inhibition test against lumen formation was carried out in the same manner as Example 15, except that α-tocopherol was substituted for DL-α-tocotrienol.
# BAEC [2] = assay: Inhibitory action against FGF activity, MTT assay on BAEC with FGF 20 ng/ml; parameters: key to Cell Multiplication: ↑: Accelerated; /: Tendency to increase; No change; ↓: Inhibited; ↓↓: Strongly inhibited; conditions: for Absorbance: MTT; for Cell Multiplication: summary
# Experimental: The fibroblast growth factor sample was prepared by dissolving a commercial FGF (Sigma Chemical Co.) in MEM (Sigma Chemical Co.)
# (§3) Each one microplate was taken out after 0, 24, 48 or 96 hours from placing the culture medium containing a sample. In the case of the microplate taken out after 96 hours, the culture medium was once changed after 48 hours. 3 mg/ml MTT solution PBS (−) was put in each well in an amount of 50 μl/well, and incubated for 3 hours in a CO2 incubator. After filling each well with phosphate buffered saline (PBS(−)), liquid in each well was evacuated, and isopropyl alcohol containing 0.04 mol/l HCL was put in each well in an amount of 200 μl/well. The microplates were allowed to stand overnight in a dark place, and then, absorbance at 595 nm and 655 nm (dual) was measured by a microplate reader.
# In the case of Control group B, no sample was added.
# BAEC [3] = assay: Effects of tocotrienols on multiplication of BAEC, MTT assay; conditions: for inhibitory action against cell multiplication: Table 1; for Absorbance: MTT
# Experimental: Normal bovine aortic endothelial cells (BAEC) were manufactured by Cell Systems Co., and purchased through Dainippon Seiyaku Co., Ltd.
# A cell suspension was prepared by adding the cells to MEM (Sigma Chemical Co.) containing 10 v/v (%) fetal bovine serum (FBS), 20 IU/ml penicillin and 20 IU/ml streptomycin (MEM+10% FBS) in a concentration of 1×10^5 cells/ml, and cultured in a 5% CO2 incubator at 37° C. by using a 60 mm dish coated with type I collagen with subculturing every 2 to 3 days.
# Each of the above samples was added to MEM containing 2% (v/v) FBS, 20 IU/ml penicillin and 20 IU/ml streptomycin (MEM+2% FBS), and subjected to testing.
# Effects of tocotrienols on the multiplication of BAEC were examined by using MTT assay.
# as §3
# In the case of Control group A, no sample was added.
# BAEC [4] = assay: Cell multiplication of BAEC, survival rate of cells using WST-1; conditions: for Survival Rate of Cells (% of control): 24 hours, WST-1; for IC50: determined from the graph of FIG. 1 (abscissa μM), read-out: median growth inhibition concentration (IC50)
# Experimental: Influence of tocotrienols on cell multiplication of BAEC was examined in various concentrations. The cell multiplication was evaluated by determining the survival rate of cells using WST-1, which makes it possible to conduct high sensitivity measurement, instead of conventional MTT.
# As a blank, the culture medium alone was incubated without adding cells. […] The microplate was taken out after 24 hours from placing the culture medium containing a sample. 10 μl/well of WST-1 solution was added to each well, and incubated in a CO2 incubator. After 3 hours, absorbance at 450 nm and 655 nm (dual) of each well was measured by a microplate reader.
# The samples employed were DL-α-tocotrienol, DL-γ-tocotrienol and DL-δ-tocotrienol. In the case of Control group I, no sample was added.
# The survival rate of cells was determined by the following formula:
# Survival Rate of Cells=(S−B)/(C−B)×100(%)
# The results of Table 10 were made in a graph shown in FIG. 1, and median growth inhibition concentration (IC50) was determined from the graph. In the figure, the numbers on the ordinate indicate the survival rate of cells (% of control), and the numbers on the abscissa indicate concentration (μM). ● is DL-α-tocotrienol, ▪ is DL-β-tocotrienol, Δ is DL-γ-tocotrienol, and X is DL-δ-tocotrienol, respectively.
# BAEC [5] = assay: Inhibition against lumen formation induced by FGF; parameters: key to Lumen Formation: ↑: Accelerated; /: Tendency to increase; No change; ↓: Inhibited; ↓↓: Strongly inhibited; conditions: for Lumen Formation: summary
# Experimental: as §1, §2
# The test was carried out similar to Examples 12-14, wherein FGF was added together with each tocotrienol. In the case of Control group E, no sample was added. […]
# [6] = 0 hr, FGF 20 ng/ml + sample 10 μM
# [7] = 24 hrs, FGF 20 ng/ml + sample 10 μM
# [8] = 48 hrs, FGF 20 ng/ml + sample 10 μM
# [9] = 96 hrs, FGF 20 ng/ml + sample 10 μM
# [10] = FGF (20 ng/ml) + sample (10 μM)
# [11] = FGF (20 ng/ml) + sample (100 μM)
Structure (SMILES),Absorbance (BAEC [2]; [6]),Absorbance (BAEC [2]; [7]),Absorbance (BAEC [2]; [8]),Absorbance (BAEC [2]; [9]),Cell Multiplication (BAEC [2]; [10]),inhibitory action against cell multiplication (BAEC [3]; 10 μM),"Absorbance (BAEC [3]; 0 hr, sample 10 μM)","Absorbance (BAEC [3]; 24 hrs, sample 10 μM)","Absorbance (BAEC [3]; 48 hrs, sample 10 μM)","Absorbance (BAEC [3]; 96 hrs, sample 10 μM)",Survival Rate of Cells (% of control) (BAEC [4]; 2 μM),Survival Rate of Cells (% of control) (BAEC [4]; 4 μM),Survival Rate of Cells (% of control) (BAEC [4]; 6 μM),Survival Rate of Cells (% of control) (BAEC [4]; 8 μM),Survival Rate of Cells (% of control) (BAEC [4]; 10 μM),IC50 (BAEC [4]),inhibition of lumen formation induced by FGF (BAEC [5]; 10 μM + FGF 20 ng/ml),Number of Cells Forming Lumen/cm^2 (BAEC [5]; sample 10 μM + FGF 20 ng/ml),Lumen Formation (BAEC [5]; [10]),other results
"CC(C)=CCC/C(C)=C/CC/C(C)=C/CC[C@]1(C)CCc2cc(O)cc(C)c2O1 (racemic) [DL-δ-Tocotrienol, δ-tocotrienol]",0.040 ± 0.002,0.003 ± 0.000,0.003 ± 0.000,0.003 ± 0.000,↓↓,remarkable inhibitory action,0.103 ± 0.001,0.004 ± 0.000,0.003 ± 0.000,0.002 ± 0.000,93.0 ± 6.8 % of control,109.4 ± 8.0 % of control,0.9 ± 1.3 % of control,5.8 ± 4.5 % of control,0.4 ± 0.9 % of control,5.5 µM,inhibited the lumen formation completely; also recorded: exhibit inhibitory action against lumen formation,0.00 ± 0.00 /cm^2,↓↓,"inhibition of lumen formation (BAEC [1]; 10 μM): inhibited lumen formation completely; Number of Cells Forming Lumen/cm^2 (BAEC [1]; Table 4, 10 μM): 0.00 ± 0.00 /cm^2"
"CC(C)=CCC/C(C)=C/CC/C(C)=C/CC[C@]1(C)CCc2c(C)c(O)cc(C)c2O1 (racemic) [DL-β-Tocotrienol, β-tocotrienol]",0.042 ± 0.002,0.036 ± 0.003,0.055 ± 0.005,0.039 ± 0.004,↓↓,remarkable inhibitory action,0.084 ± 0.002,0.029 ± 0.004,0.39 ± 0.007,0.011 ± 0.002,89.4 ± 5.1 % of control,97.8 ± 7.9 % of control,57.1 ± 5.9 % of control,5.6 ± 5.4 % of control,0.0 ± 0.0 % of control,6.5 µM,inhibited the lumen formation completely; also recorded: exhibit inhibitory action against lumen formation,0.00 ± 0.00 /cm^2,↓↓,–
"Cc1c(C)c2c(c(C)c1O)CC[C@@](C)(CCC[C@H](C)CCC[C@H](C)CCCC(C)C)O2 [α-Tocopherol, α-tocopherol, reference compound]",–,–,–,–,–,–,–,–,–,–,–,–,–,–,–,–,–,–,–,"inhibition of lumen formation (BAEC [1]; 100 μM): did not inhibit lumen formation; Absorbance (BAEC [2]; 0 hr, FGF 20 ng/ml + sample 100 μM): 0.045 ± 0.002; Absorbance (BAEC [2]; 24 hrs, FGF 20 ng/ml + sample 100 μM): 0.080 ± 0.004; Absorbance (BAEC [2]; 48 hrs, FGF 20 ng/ml + sample 100 μM): 0.242 ± 0.014; Absorbance (BAEC [2]; 96 hrs, FGF 20 ng/ml + sample 100 μM): 0.360 ± 0.020; Cell Multiplication (BAEC [2]; [11]): ↑; inhibitory action against cell multiplication (BAEC [3]; 100 μM): does not exhibit inhibitory action; Absorbance (BAEC [3]; 0 hr, sample 100 μM): 0.092 ± 0.003; Absorbance (BAEC [3]; 24 hrs, sample 100 μM): 0.140 ± 0.003; Absorbance (BAEC [3]; 48 hrs, sample 100 μM): 0.268 ± 0.004; Absorbance (BAEC [3]; 96 hrs, sample 100 μM): 0.520 ± 0.012; inhibition of lumen formation induced by FGF (BAEC [5]; 100 μM + FGF 20 ng/ml): not found; Number of Cells Forming Lumen/cm^2 (BAEC [5]; sample 100 μM + FGF 20 ng/ml): 25.25 ± 2.10 /cm^2; Lumen Formation (BAEC [5]; [11]): →"
